Measured values as given in patent US20020160983A1, “Substituted benzopyranones as telomerase inhibitors” (priority 2001, published 2002).

The compounds below were run against telomerase enzyme (Homo sapiens, UniProt O14746) (assay: Flash Plate-based telomerase activity assay). Details: two hours of incubation at 37°, biotinylated oligo primer, radioactive labeled probe.
Type: biochemical
Method: The telomerase activity of the compounds has been evaluated using a Flash Plate-based assay.
Briefly the assay mixture is constituted of:
telomerase enzyme diluted in a buffer, the composition of which has been selected to maintain the enzyme activity stable along the duration of the assay.
dNTPs, deoxynucleotides 5′-triphosphate.
biotinylated oligo as primer.
increasing concentrations of test compounds/positive control.
After two hours of incubation at 37° degrees the telomeric repeats added by telomerase are evaluated by hybridization in solution with a 3′-radioactive labeled short oligonucleotide probe.
The extent of hybridization is then quantitated by transferring the reaction mixture in a streptavidin-coated flash plate, where the binding between biotin and streptavidin occurs.
The telomerase activity is proportional to the radioactivity measured and the inhibitory activity of the compounds is evaluated as IC50 using the Sigma Plot fit program.
With the above-described method IC50 values of the compounds of the present invention were determined.

telomerase enzyme, sequence (O14746 whole entry): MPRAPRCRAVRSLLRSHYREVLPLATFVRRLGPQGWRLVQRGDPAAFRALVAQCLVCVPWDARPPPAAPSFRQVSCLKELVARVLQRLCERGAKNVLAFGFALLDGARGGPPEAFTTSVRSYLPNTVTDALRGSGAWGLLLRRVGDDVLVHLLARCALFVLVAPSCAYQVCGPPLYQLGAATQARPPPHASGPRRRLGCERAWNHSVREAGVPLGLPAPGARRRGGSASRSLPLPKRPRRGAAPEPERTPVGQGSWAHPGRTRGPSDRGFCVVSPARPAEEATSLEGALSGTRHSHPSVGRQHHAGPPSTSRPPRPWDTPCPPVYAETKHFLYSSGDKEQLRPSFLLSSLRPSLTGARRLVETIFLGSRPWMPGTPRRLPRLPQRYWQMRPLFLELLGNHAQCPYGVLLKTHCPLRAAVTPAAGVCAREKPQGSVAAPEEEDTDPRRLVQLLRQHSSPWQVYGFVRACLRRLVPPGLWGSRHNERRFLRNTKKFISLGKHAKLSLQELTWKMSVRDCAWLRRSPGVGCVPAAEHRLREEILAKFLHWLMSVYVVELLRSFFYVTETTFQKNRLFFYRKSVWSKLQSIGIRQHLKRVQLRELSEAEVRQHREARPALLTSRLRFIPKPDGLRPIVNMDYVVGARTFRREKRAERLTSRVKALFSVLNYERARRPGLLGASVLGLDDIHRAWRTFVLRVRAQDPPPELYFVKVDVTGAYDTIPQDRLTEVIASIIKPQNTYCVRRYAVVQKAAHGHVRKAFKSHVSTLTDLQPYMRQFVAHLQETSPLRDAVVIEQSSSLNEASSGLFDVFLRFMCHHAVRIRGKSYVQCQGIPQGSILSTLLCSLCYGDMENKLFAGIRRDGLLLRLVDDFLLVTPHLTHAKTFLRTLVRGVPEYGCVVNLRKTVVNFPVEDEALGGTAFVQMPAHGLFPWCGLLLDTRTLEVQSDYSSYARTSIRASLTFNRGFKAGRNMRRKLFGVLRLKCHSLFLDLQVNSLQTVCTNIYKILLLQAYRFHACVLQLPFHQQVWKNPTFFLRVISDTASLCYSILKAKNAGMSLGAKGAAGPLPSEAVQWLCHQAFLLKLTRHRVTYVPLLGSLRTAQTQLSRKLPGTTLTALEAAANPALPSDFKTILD

Row | SMILES | IC50 [µM]
1 | O=c1cc(-c2ccccc2)oc2c(O)c(O)ccc12 [Compound 1, 7,8-dihydroxy-2-phenyl-4H-chromen-4-one] | 33
2 | O=c1cc(-c2ccc(O)cc2)oc2c(O)c(O)ccc12 [Compound 2, 7,8-dihydroxy-2-(4-hydroxyphenyl)-4H-chromen-4-one] | 3
3 | O=c1cc(-c2ccc(O)c(O)c2)oc2c(O)c(O)ccc12 [Compound 3, 2-(3,4-dihydroxyphenyl)-7,8-dihydroxy-4H-chromen-4-one] | 0.3
4 | O=c1cc(-c2ccccc2O)oc2c(O)c(O)ccc12 [Compound 4, 7,8-dihydroxy-2-(2-hydroxyphenyl)-4H-chromen-4-one] | 25.3
5 | O=c1cc(-c2cccc(O)c2)oc2c(O)c(O)ccc12 [Compound 5, 7,8-dihydroxy-2-(3-hydroxyphenyl)-4H-chromen-4-one] | 34
6 | COc1ccc(-c2cc(=O)c3ccc(O)c(O)c3o2)cc1OC [Compound 7, 7,8-dihydroxy-2-(3,4-dimethoxyphenyl)-4H-chromen-4-one] | 12
7 | CC(=O)Oc1ccc(-c2cc(=O)c3ccc(OC(C)=O)c(OC(C)=O)c3o2)cc1OC(C)=O [Compound 14, 2-(3,4-diacetoxyphenyl)-7,8-diacetoxy—4H-chromen-4-one] | 15
8 | COc1ccc(-c2cc(=O)c3ccc(OC)c(OC)c3o2)cc1OC [Compound 24, 7,8-dimethoxy-2-(3,4-dimethoxyphenyl)-4H-chromen-4-one] | > 40
9 | O=c1c(Cl)c(-c2ccc(O)c(O)c2)oc2c(O)c(O)ccc12 [Compound 37, 3-chloro-2-(3,4-dihydroxyphenyl)-7,8-dihydroxy-4H-chromen-4-one] | 0.8
10 | COc1ccc(-c2oc3c(OC)c(OC)ccc3c(=O)c2Cl)cc1OC [Compound 38, 3-chloro-2-(3,4-dimethoxyphenyl)-7,8-dimethoxy-4H-chromen-4-one] | > 40
11 | N#Cc1c(-c2ccc(O)c(O)c2)oc2c(O)c(O)ccc2c1=O [Compound 39, 3-cyano-2-(3,4-dihydroxyphenyl)-7,8-dihydroxy-4H-chromen-4-one] | 0.13
12 | O=c1c(F)c(-c2ccc(O)c(O)c2)oc2c(O)c(O)ccc12 [Compound 41, 3-fluoro-2-(3,4-dihydroxyphenyl)-7,8-dihydroxy-4H-chromen-4-one] | 0.6
13 | O=c1cc(-c2cccc(Cl)c2)oc2c(O)c(O)ccc12 [Compound 45, 2-(3-chlorophenyl)-7,8-dihydroxy-4H-chromen-4-one] | 30
14 | O=c1cc(-c2ccc(Cl)c(Cl)c2)oc2c(O)c(O)ccc12 [Compound 46, 2-(3,4-dichlorophenyl) -7,8-dihydroxy-4H-chromen-4-one] | 14.3
15 | O=c1cc(-c2ccc(O)c(O)c2)oc2c(O)c(O)c(Cl)cc12 [Compound 49, 6-chloro-2-(3,4-dihydroxyphenyl)-7,8-dihydroxy-4H-chromen-4-one] | 0.34
16 | COc1ccc(-c2cc(=O)c3cc(Cl)c(OC)c(OC)c3o2)cc1OC [Compound 50, 6-chloro-2-(3,4-dimethoxyphenyl)-7,8-dimethoxy-4H-chromen-4-one] | 5.4
17 | COc1ccc2c(=O)cc(-c3ccc(N)c(N)c3)oc2c1OC [Compound 51, 2-(3,4-diaminophenyl)-7,8-dimethoxy-4H-chromen-4-one] | 7.4
18 | Nc1ccc(-c2cc(=O)c3ccc(O)c(O)c3o2)cc1N [Compound 52, 2-(3,4-diaminophenyl)-7,8-dihydroxy-4H-chromen-4-one] | 3.6
19 | COc1ccc2c(=O)cc(-c3ccc(NC(C)=O)c(NC(C)=O)c3)oc2c1OC [Compound 58, N-[2-(acetylamino)-4-(7,8-dimethoxy-4-oxo-4H-chromen-2-yl)phenyl]acetamide] | > 40
20 | COc1ccc2c(=O)cc(-c3ccc4[nH]cnc4c3)oc2c1OC [Compound 61, 2-(1H-benzimidazol-5-yl)-7,8-dimethoxy-4H-chromen-4-one] | 2.2
21 | COc1ccc2c(=O)cc(-c3ccc4[nH]nnc4c3)oc2c1OC [Compound 65, 2-(1H-1,2,3-benzotriazol-5-yl)-7,8-dimethoxy-4H-chromen-4-one] | > 40
22 | COc1ccc2c(=O)cc(-c3ccc4[nH]c(=O)[nH]c4c3)oc2c1OC [Compound 67, 5-(7,8-dimethoxy-4-oxo-4H-chromen-2-yl)-1,3-dihydro-2H-benzimidazol-2-one] | 19
23 | COc1ccc2c(=O)cc(-c3ccc(O)c(O)c3)oc2c1O [Compound 78, 8-hydroxy-7-methoxy-2-(3,4-dihydroxyphenyl)-4H-chromen-4-one] | 7.8
24 | COc1ccc(-c2cc(=O)c3ccc(O)c(O)c3o2)cc1O [Compound 79, 7,8-dihydroxy-2-(3-hydroxy-4-methoxyphenyl)-4H-chromen-4-one] | 11.7
25 | COc1ccc(-c2cc(=O)c3ccc(OC)c(OC)c3o2)cc1O [Compound 87, 7,8-dimethoxy-2-(3-hydroxy-4-methoxyphenyl)-4H-chromen-4-one] | 8.7
26 | CC(=O)Oc1ccc(-c2cc(=O)c3ccc(O)c(O)c3o2)cc1OC(C)=O [Compound 90, 2-(3,4-diacetoxyphenyl)-7,8-dihydroxy-4H-chromen-4-one] | 0.64
